Experiments:
Experiment in all cases: Test C greenhouse herbicide test, pre- and postemergence
Type in all cases: in vivo
[1] = test system: morningglory (Ipomoea coccinea)
How it was run: (§1)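 Each species was treated both before emergence, in a loam–sand soil mix, and after emergence, as 1- to 4-leaf seedlings in peat-based potting medium. Plants stayed in the greenhouse 13 to 15 d, then were scored from 0 (no effect) to 100 (complete control) relative to controls.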

[2] = test system: blackgrass (Alopecurus myosuroides)
How it was run: as §1

[3] = test system: waterhemp (common waterhemp, Amaranthus rudis)
How it was run: as §1

[4] = test system: wheat (winter wheat, Triticum aestivum)
How it was run: as §1

[5] = test system: lambsquarters (Chenopodium album)
How it was run: as §1

[6] = test system: crabgrass, large (large crabgrass, Digitaria sanguinalis)
How it was run: as §1

[7] = test system: barnyardgrass (Echinochloa crus-galli)
How it was run: as §1

[8] = test system: velvetleaf (Abutilon theophrasti)
How it was run: as §1

[9] = test system: nutsedge, yellow (yellow nutsedge, Cyperus esculentus)
How it was run: as §1

[10] = test system: johnsongrass (Sorghum halepense)
How it was run: as §1

[11] = test system: pigweed (Amaranthus retroflexus)
How it was run: as §1

[12] = test system: corn (Zea mays)
How it was run: as §1

[13] = test system: ragweed (common ragweed, Ambrosia elatior)
How it was run: as §1

[14] = test system: soybean (Glycine max)
How it was run: as §1

[15] = test system: ryegrass, Italian (Italian ryegrass, Lolium multiflorum)
How it was run: as §1

[16] = Postemergence, 31 g ai/ha, 0 to 100 scale (0 no effect, 100 complete control)
[17] = Postemergence, 125 g ai/ha, scale 0 to 100, 0 is no effect, 100 is complete control
[18] = Postemergence, 250 g ai/ha, scale 0 to 100, 0 no effect, 100 complete control, 13 to 15 d
[19] = postemergence, 62 g ai/ha, scale 0 to 100, 0 no effect, 100 complete control

`Cc1ccc2sc(C)c(-c3c(OC(=O)C(C)(C)C)c(C)nn(C)c3=O)c2c1` [Compound 26] was tested, and the “Morningglory plant response rating” value [1, 16] was 98, the “Plant response rating, Morningglory” value [1, 17] was 100 and the “Plant response rating, Morningglory” value [1, 18] was 100. The “Morningglory plant response rating” value [1, 19] was 100, the “Blackgrass plant response rating” value [2, 16] was 50 and the “Plant response rating, Blackgrass” value [2, 17] was 60. For the same compound, the “Plant response rating, Blackgrass” value [2, 18] was 75, the “Blackgrass plant response rating” value [2, 19] was 55 and the “Waterhemp plant response rating” value [3, 16] was 75. The “Plant response rating, Waterhemp” value [3, 17] was 85, the “Plant response rating, Waterhemp” value [3, 18] was 95 and the “Waterhemp plant response rating” value [3, 19] was 85. For the same compound, the “Wheat plant response rating” value [4, 16] was 0, the “Plant response rating, Wheat” value [4, 17] was 0 and the “Plant response rating, Wheat” value [4, 18] was 5. The “Wheat plant response rating” value [4, 19] was 0, the “Lambsquarters plant response rating” value [5, 16] was 75 and the “Plant response rating, Lambsquarters” value [5, 17] was 90. The “Plant response rating, Lambsquarters” value [5, 18] was 98, the “Lambsquarters plant response rating” value [5, 19] was 85 and the “Crabgrass, Large plant response rating” value [6, 16] was 5. The “Plant response rating, Crabgrass, Large” value [6, 17] was 20, the “Plant response rating, Crabgrass, Large” value [6, 18] was 25 and the “Crabgrass, Large plant response rating” value [6, 19] was 20. For the same compound, the “Barnyardgrass plant response rating” value [7, 16] was 20, the “Plant response rating, Barnyardgrass” value [7, 17] was 30 and the “Plant response rating, Barnyardgrass” value [7, 18] was 35. The “Barnyardgrass plant response rating” value [7, 19] was 25, the “Velvetleaf plant response rating” value [8, 16] was 5 and the “Plant response rating, Velvetleaf” value [8, 17] was 60. The “Plant response rating, Velvetleaf” value [8, 18] was 70, the “Velvetleaf plant response rating” value [8, 19] was 30 and the “Nutsedge, Yellow plant response rating” value [9, 16] was 5. The “Plant response rating, Nutsedge, Yellow” value [9, 17] was 20, the “Plant response rating, Nutsedge, Yellow” value [9, 18] was 25 and the “Nutsedge, Yellow plant response rating” value [9, 19] was 10. The “Johnsongrass plant response rating” value [10, 16] was 5, the “Plant response rating, Johnsongrass” value [10, 17] was 5 and the “Plant response rating, Johnsongrass” value [10, 18] was 5. The “Johnsongrass plant response rating” value [10, 19] was 5, the “Pigweed plant response rating” value [11, 16] was 75 and the “Plant response rating, Pigweed” value [11, 17] was 98. For the same compound, the “Plant response rating, Pigweed” value [11, 18] was 95, the “Pigweed plant response rating” value [11, 19] was 85 and the “Corn plant response rating” value [12, 16] was 0. For the same compound, the “Plant response rating, Corn” value [12, 17] was 5, the “Plant response rating, Corn” value [12, 18] was 5 and the “Corn plant response rating” value [12, 19] was 10. For the same compound, the “Ragweed plant response rating” value [13, 16] was 15, the “Plant response rating, Ragweed” value [13, 17] was 85 and the “Plant response rating, Ragweed” value [13, 18] was 90. The “Ragweed plant response rating” value [13, 19] was 70, the “Soybean plant response rating” value [14, 16] was 5 and the “Plant response rating, Soybean” value [14, 17] was 10. For the same compound, the “Plant response rating, Soybean” value [14, 18] was 10, the “Soybean plant response rating” value [14, 19] was 5 and the “Ryegrass, Italian plant response rating” value [15, 16] was 85. The “Plant response rating, Ryegrass, Italian” value [15, 17] was 90, the “Plant response rating, Ryegrass, Italian” value [15, 18] was 90 and the “Ryegrass, Italian plant response rating” value [15, 19] was 90.

Source: patent US10597388B2, “Pyridazinone herbicides” (FMC CORPORATION, priority 2014, dated 2020)
